Laboratory results: publication PMC9663578, “A fluorogenic probe for predicting treatment response in non-small cell lung cancer with EGFR-activating mutations” (Nature Communications, 2022)
“And” between values parts separate entries of the source, which are not always exact repeats. Equal values may be shown once.

Columns and labels:
EGFR T790M = target: T1, EGFR T790M (Homo sapiens, UniProt P00533, T790M); assay: Fluorescence turn-on response / titration of HX103 with recombinant EGFR;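 as to Fluorescence intensity at 570 nm: 100% is HX103 fluorescence with wild-type EGFR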; assay type: binding; conditions: for Fluorescence intensity, T790M: Fig. 2c; for Fluorescence response of HX103 to EGFR T790M: Supplementary Fig. 2f
T1 construct: EGFR T790M (amino acids 668–1210, #PR8052A); purchased Thermo Fisher PR8052A
Procedure: (d) Fluorescence spectra change of HX103 (5 µ M) with increasing concentration of EGFR L858R
(e) Fluorescence spectra change of HX103 (5 µ M ) with
increasing concentration of EGFR 19del (0 to 6 µM) in PBS buffer. (f) Titration curve of HX103
(5 µM) with increasing concentration of EGFRs (0 to 6 µM). The apparent binding affinity (Kd)
The fluorescence titration curve was fitted on one -
site specific binding model. I and I0 represent the intensities of HX103 at 570 nm in the presence
and absence of protein. Data represent average val ues ± SD, n = 3 independent experiments per
dissolved in dimethyl sulfoxide (DMSO) to obtain stock solutions (10 mM). The prepared stock
solution was diluted in sodium phosphate buffer (PBS, 1 M, pH=7.4) to obtain the desired final
concentration solution, containing 0.1% (v/v) DMSO as a cosolvent.
and emission fluorescence spectra of the solution before/after addition o f different concentration
Data analysis：The obtained fluorescence intensity at 570 nm (Excitation wavelength was 440
nm) in each sample was normalized by using the fluorescence intensity of HX103 in the presence
of EGFR. Specifically, the fluorescence intensity of HX103 in the presence of EGFR wild-type
was set at 100% to normalized that of the remaining samples.

HCC827 = assay: Western blot of EGFR activation and downstream AKT and ERK1/2 phosphorylation; assay type: cell-based, human
Procedure: (§1) Western blotting analysis was performed to investigate the expression of EGFR and downstream signaling pathway in various cancer cells. Cells were added at a density of 5 × 10^5 per well in six-well plates and serum-starved in DMEM without FBS. […] After a PBS washing step, the cells were harvested and lysed in RIPA lysis buffer (Thermo Scientific, #89900) on ice for 20 min. After sonication, cell lysates were centrifuged at 12,000×g at 4 °C for 20 min. The supernatant was collected and protein concentration was determined by a BCA protein quantitation kit (Vazyme) and normalized to 2 mg/mL. Subsequently, 20 µL of protein sample was loaded to each lane and resolved on a 10% SDS-PAGE gel. After that, proteins on the gel were transferred onto polyvinylidene difluoride (PVDF) membranes (0.45 µm, Amersham Bioscience). PVDF membranes were blocked with 5% BSA blocking solution for 2 h at room temperature, followed by incubation with different primary antibodies (4 °C, overnight), including EGFR (#4267, 1:1000), phospho-EGFR (#3777, 1:1000), Akt (#4685, 1:1000), phospho-Akt (#4060, 1:1000), ERK1/2 (#4695, 1:1000), phospho-ERK1/2 (#4370, 1:2000) and GAPDH (#5174, 1:2000). Next, the membranes were washed by TBST buffer (Tris buffer with 0.1% Tween-20) for three times, followed by incubation with anti-rabbit IgG (HRP-linked antibody, #7074, 1:5000) for 1 h at room temperature. Finally, the blots were washed in PBST and immunoreactive proteins were detected using a luminal solution with ECL enhancer and H2O2 by ChemiDoc MP (BioRad) with Image Lab 6.0 software. The band density of each band was quantified and normalized to that of the corresponding GAPDH band to correct the possible differences in the content of protein loading. Each experiment was repeated 3 times for statistical analysis, and uncropped blots are in Source Data.

Hela = assay: as above; assay type: cell-based, human; conditions: HX103 0 to 10 µM, EGF 25 ng/mL
Procedure: as §1

H1975 = assay: as above; assay type: cell-based, human; conditions: for p-kinase / kinase pAKT/AKT / p-kinase / kinase pEGFR/EGFR / p-kinase / kinase pERK/ERK: Fig. 2h H1975, DMSO = 1, n=1-3
Procedure: as §1

A431 = assay: as above; assay type: cell-based, human; conditions: Fig. 2i A431, DMSO = 1, n=1-3
Procedure: as §1

[1] = concentration 0.3 (unit not given)
[2] = concentration 1 (unit not given)
[3] = concentration 3 (unit not given)
[4] = concentration 10 (unit not given)

Which results are given for `COc1cc2c(Nc3ccc(F)c(Cl)c3)ncnc2cc1OCCCNc1ccc(S(=O)(=O)N(C)C)c2nonc12` [HX103]?
Fluorescence intensity, T790M (EGFR T790M; wavelength 666 nm): 2748.26; Fluorescence intensity, T790M (EGFR T790M; wavelength 669 nm): 2609.98; Fluorescence intensity, T790M (EGFR T790M; wavelength 671 nm): 2444.87; Fluorescence intensity, T790M (EGFR T790M; wavelength 673 nm): 2257.89; Fluorescence intensity, T790M (EGFR T790M; wavelength 676 nm): 2067.13; Fluorescence intensity, T790M (EGFR T790M; wavelength 678 nm): 1891.35; Fluorescence intensity, T790M (EGFR T790M; wavelength 681 nm): 1749.2; Fluorescence intensity, T790M (EGFR T790M; wavelength 683 nm): 1648.24; Fluorescence intensity, T790M (EGFR T790M; wavelength 686 nm): 1577.34; Fluorescence intensity, T790M (EGFR T790M; wavelength 688 nm): 1523.55; Fluorescence intensity, T790M (EGFR T790M; wavelength 690 nm): 1473.92; Fluorescence intensity, T790M (EGFR T790M; wavelength 693 nm): 1419.2; Fluorescence intensity, T790M (EGFR T790M; wavelength 695 nm): 1359.54; Fluorescence intensity, T790M (EGFR T790M; wavelength 698 nm): 1296.59; Fluorescence intensity, T790M (EGFR T790M; wavelength 700 nm): 1231.99; Fluorescence intensity at 570 nm (EGFR T790M; Fig. 2d, HX103 with EGFR T790M, n=1-3): 62.6243 and 56.177 and 61.7341; fluorescence turn-on response (EGFR T790M; HX103 5 µM in PBS buffer (0.1% DMSO), 570 nm): relatively low fluorescence; Kd (EGFR T790M; HX103 5 µM, EGFR 0 to 6 µM in PBS, one-site specific binding model, read-out: apparent binding affinity (Kd)): 6.6 ± 4.6 µM; Fluorescence response of HX103 to EGFR T790M (EGFR T790M; EGFR 0.1 µM, n=1-3): 0.8143 and 0.8764 and 0.5043; Fluorescence response of HX103 to EGFR T790M (EGFR T790M; EGFR 0.5 µM, n=1-3): 1.381 and 1.689 and 1.392; Fluorescence response of HX103 to EGFR T790M (EGFR T790M; EGFR 1 µM, n=1-3): 1.713 and 2.039 and 1.744; Fluorescence response of HX103 to EGFR T790M (EGFR T790M; EGFR 6 µM, n=1-3): 6.037 and 7.198 and 5.58; p-kinase / kinase pAKT/AKT (HCC827; Fig. 2g HCC827, concentration 0.3 (unit not given), DMSO = 1, n=1-3): 0.4984 and 0.298 and 0.4432; p-kinase / kinase pAKT/AKT (HCC827; Fig. 2g HCC827, concentration 1 (unit not given), DMSO = 1, n=1-3): 0.1684 and 0.1251 and 0.1468; p-kinase / kinase pERK/ERK (HCC827; Fig. 2g HCC827, concentration 10 (unit not given), DMSO = 1, n=1-3): 0.1947 and 0.3677 and 0.3512; effect on phosphorylation of EGFR and downstream proteins (HCC827; HX103 0 to 10 µM, EGF 25 ng/mL): inhibited the phosphorylation of EGFR and the downstream proteins; effect on wild-type EGFR phosphorylation (Hela): significantly inhibited; p-kinase / kinase pAKT/AKT (H1975; [1]): 0.698 and 0.724 and 0.636; p-kinase / kinase pEGFR/EGFR (H1975; [1]): 0.558 and 0.543 and 0.573; p-kinase / kinase pERK/ERK (H1975; [1]): 1.210 and 0.879 and 1.031; p-kinase / kinase pAKT/AKT (H1975; [2]): 0.488 and 0.317; p-kinase / kinase pEGFR/EGFR (H1975; [2]): 0.199 and 0.313 and 0.331; p-kinase / kinase pERK/ERK (H1975; [2]): 0.535 and 0.443 and 0.459; p-kinase / kinase pAKT/AKT (H1975; [3]): 0.579 and 0.573 and 0.560; p-kinase / kinase pERK/ERK (H1975; [3]): 0.840 and 0.618 and 0.696; p-kinase / kinase pAKT/AKT (H1975; [4]): 0.468 and 0.342 and 0.500; p-kinase / kinase pEGFR/EGFR (H1975; [4]): 0.219 and 0.161 and 0.276; p-kinase / kinase pERK/ERK (H1975; [4]): 0.660 and 0.681 and 0.939; effect on phosphorylation of EGFR and downstream proteins (H1975; HX103 0 to 10 µM, EGF 25 ng/mL): a certain resistance; p-kinase / kinase pAKT/AKT (A431; [1]): 0.604 and 0.491 and 0.502; p-kinase / kinase pERK/ERK (A431; [1]): 0.593 and 0.802 and 0.793; p-kinase / kinase pAKT/AKT (A431; [2]): 0.33 and 0.312 and 0.321; p-kinase / kinase pERK/ERK (A431; [2]): 0.301 and 0.442 and 0.417; p-kinase / kinase pAKT/AKT (A431; [3]): 0.264 and 0.189 and 0.222
